In US11065194B2, “Cosmetic use of extracts of Salvia miltiorrhiza roots, special extracts of Salvia miltiorrhiza roots and cosmetic compositions containing such extracts” (SOCIETE INDUSTRIELLE LIMOUSINE D'APPLICATION BIOLOGIQUE, priority 2018, dated 2021):
Marks after values point to notes of the source that are not given here.

Key:
[1] = biological target: T1, TRPV1 receptors of human sensory neurons (Homo sapiens, UniProt Q8NER1); experiment: Inhibition of TRPV1 receptors of sensory neurons activated by capsaicin (cytoplasmic calcium, Fluo-4 probe); type: cell-based; conditions: tested at 10 μM
T1 construct: endogenous in cells; host or cells: human sensory neurons derived from hiPS cells, in co-culture with normal human keratinocytes
Experimental: The aim of this study is to evaluate the capacity of an extract of Salvia miltiorrhiza roots to inhibit the activity of TRPV1 (Transient receptor potential vanilloid 1) receptors of human sensory neurons that play a major role in the detection and transmission of sensations of pain and itching to the central nervous system.
This study was performed on a model of human sensory neurons derived from hiPS cells (human-induced Pluripotent Stem Cells) in co-culture with human keratinocytes. The activation of TRPV1 receptors is characterized by a massive entry of calcium into the cytoplasm of the sensory neurons that can be captured by a fluorescent probe and analyzed by epifluorescence microscopy.
The operating protocol is described below: • D0, culture of sensory neurons derived from hiPS cells: • The hiPS (human-induced Pluripotent Stem) cells are seeded in a culture medium and incubated at 37° C. • D14, placed in co-culture with normal human keratinocytes: • Some human keratinocytes are seeded onto the carpet of sensory neurons. […] This entry of calcium is captured by the Fluo-4 probe, causing an increase in the level of fluorescence in the neurons. The greater the increase in the level of fluorescence, the more the TRPV1 receptors are activated.
The average of the increase in the level of fluorescence was compared in percentage terms to the non-activated control condition.

[2] = test system: PGE2; experiment: Secretion of PGE2 by human keratinocytes treated with fine particles (PM), ELISA; type: cell-based; conditions: tested at 0.5 μM
Experimental: The purpose of this study is to evaluate the capacity of an extract of Salvia miltiorrhiza roots to limit the secretion of prostaglandins E2 (PGE2) in the event of an inflammation caused by a pollutant (fine particles: PM).
This study was performed by ELISA assay on the culture supernatant of human keratinocytes subjected to a treatment with fine particles (PM) mimicking a polluted environment.
The operating protocol of the study is described below. • D0:
Normal human keratinocytes were seeded in a culture medium and incubated at 37° C. in an atmosphere containing 5% CO2. • D2: • Pre-treatment:
The keratinocytes were pretreated with or without the extract of Example 1 at 0.025% and 0.05% (V/V) or with capsazepine at 0.5 μM (inhibitor of TRPV1). The cells were then incubated for 30 minutes at 37° C. in an atmosphere containing 5% CO2. • Treatment with fine particles (PM):
The keratinocytes were treated with a solution of particles.
The cells were then incubated for 24 hours at 37° C. in an atmosphere containing 5% CO2. • D3, recovery of supernatants:
The culture supernatants were recovered and the PGE2s were assayed using an ELISA Kit (Enzo Life Sciences).
The test of Study II.2 on the secretion of PGE2 was performed on the extract and on Fraction A.

[3] = test system: COX-2; experiment: Synthesis of COX-2 on SILABSKIN REs treated with fine particles (PM), immunohistochemistry; type: cell-based, human; conditions: tested at 1 μM
Excerpt: The purpose of this study is to evaluate the capacity of an extract of Salvia miltiorrhiza roots to limit the synthesis of cyclo-oxygenase 2 (COX-2) in the event of an inflammation caused by a pollutant (fine particles: PM).
The expression of COX-2 has been evaluated by immunohistochemistry on SILABSKIN® REs subjected to repeated treatments with fine particles (PM) in order to mimic a polluted environment.
Human keratinocytes were cultivated in a specific culture medium • D0: • Normal human keratinocytes were seeded on inserts then incubated at 37° C. in an atmosphere containing 5% CO2. • D2 to D13: • The culture medium was changed every 2 days. • D14 and D15, treatments of SILABSKIN® REs: • SILABSKIN® REs were treated topically with a solution of fine particles (PM), with or without the presence of the extract of Example 1 at 0.25% (V/V), or with capsazepine at […]. • D16: • The SILABSKIN® REs were recovered, fixed, dehydrated and embedded in paraffin. Sections (4 μm) were then cut using a microtome (RM2125RT, Leica).
B. Analysis of the Expression of COX-2 by Immunohistochemical Marking • Removal of paraffin with xylene • Unmasking the antigenic sites • Saturation • Primary antibody: rabbit monoclonal anti-COX-2 antibody • Secondary antibody: coupled Alexa Fluor® 488 […] antibody
The expression of COX-2 was proportional to the intensity of the green fluorescence present on the SILABSKIN® REs. A quantitative analysis of the images was performed with the aid of Matlab® version R2012b (MathWorks) software. The results were expressed in arbitrary units (UA).

T1 sequence (Q8NER1 whole entry): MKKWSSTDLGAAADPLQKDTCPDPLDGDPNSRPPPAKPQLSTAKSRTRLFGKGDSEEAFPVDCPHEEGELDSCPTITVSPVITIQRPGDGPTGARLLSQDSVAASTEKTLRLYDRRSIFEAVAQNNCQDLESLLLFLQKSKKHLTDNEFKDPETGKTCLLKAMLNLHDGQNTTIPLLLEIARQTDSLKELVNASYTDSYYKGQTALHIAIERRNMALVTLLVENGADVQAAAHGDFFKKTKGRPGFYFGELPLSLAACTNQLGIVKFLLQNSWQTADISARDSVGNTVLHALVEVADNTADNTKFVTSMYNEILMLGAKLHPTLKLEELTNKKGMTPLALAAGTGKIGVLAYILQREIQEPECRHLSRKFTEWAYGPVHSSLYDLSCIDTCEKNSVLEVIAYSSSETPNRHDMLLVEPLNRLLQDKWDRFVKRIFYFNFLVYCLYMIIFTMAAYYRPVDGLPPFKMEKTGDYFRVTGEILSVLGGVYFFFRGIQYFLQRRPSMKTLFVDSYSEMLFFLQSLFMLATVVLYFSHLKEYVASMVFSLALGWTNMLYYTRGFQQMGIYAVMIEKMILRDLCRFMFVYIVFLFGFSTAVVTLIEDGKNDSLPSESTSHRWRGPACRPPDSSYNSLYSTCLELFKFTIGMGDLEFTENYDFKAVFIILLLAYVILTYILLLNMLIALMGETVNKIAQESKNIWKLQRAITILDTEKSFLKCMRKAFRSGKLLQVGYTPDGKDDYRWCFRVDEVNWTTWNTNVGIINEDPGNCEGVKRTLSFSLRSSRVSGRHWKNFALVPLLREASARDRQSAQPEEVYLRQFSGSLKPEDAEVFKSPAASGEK

inhibition at 10 µM ([1]; capsaicin 10 μM, read-out: Inhibition of TRPV1 receptors/activated control neurons): 199%
Mobilization of cytoplasmic calcium ([1]; neurons activated by capsaicin 10 μM, non-activated control = 100): 131*** %
SMILES: Oc1cc2c(cc1O)CN(C(=S)NCCc1ccc(Cl)cc1)CCC2 [Capsazepine, capsazepine]
inhibition at 0.5 µM ([2]; Homo sapiens, Keratinocyte, read-out: Inhibition of the PM-caused increase in secretion of PGE2): 78%
PGE2 Content/PM-treated control [2]: −78%
PGE2 Content ([2]; keratinocytes treated with PMs): 433* pg/mg of proteins
Inhibition of the PM-caused increase in expression of COX-2 [3]: 38%
Synthesis of COX-2/polluted control [3]: −38%
Synthesis of COX-2 ([3]; polluted SILABSKIN REs (PM)): 659* ×10^3 UA
